Data: patent US12396459B2, “Synergistically effective herbicide composition comprising pyridate and at least one defined 4-HPPD inhibitor” (BELCHIM CROP PROTECTION NV, priority 2018, dated 2025)

Tests used:
Type in all cases: in vivo
Setaria verticillata = test: Field trial post-emergence in maize: SETVE
Procedure: (§1) Herbicidal activity of herbicide compositions according to the first aspect of the present invention with regard to different types of unwanted vegetation was determined during trials performed on test fields (field trials). Individual compositions comprising pyridate and individual compositions comprising a defined 4-HPPD inhibitor are compared with a herbicide composition according to the invention comprising both pyridate and a defined 4-HPPD inhibitor. The expected activity of the combination of the active compounds pyridate and a defined 4-HPPD inhibitor is calculated according to above mentioned calculation method by Colby, in order to evaluate a synergistic effect between pyridate and a defined 4-HPPD inhibitor.
(§2) Herbicidal activity was determined by applying herbicide compositions on emerged unwanted vegetation on fields where maize was cultivated. Pyridate and a defined 4-HPPD inhibitor were applied as a tank mixture by mixing these active compounds prior to use in a spray tank. The corresponding mixture was in the form of a spray liquor. Besides, spray liquors of individual compositions comprising pyridate and of individual compositions comprising a defined 4-HPPD inhibitor were used. Test plants of unwanted vegetation with a growth stage corresponding to BBCH 10-18 (according to the extended BBCH-scale) were sprayed with the active compound preparations such that particular desired amounts of active compounds are applied per unit area. Spray liquor was diluted with water to arrive at an application volume of 50 to 450 L/ha. At a specified number of days after application (DAA), the degree of damage to the unwanted vegetation is rated in % of plants of unwanted vegetation that were killed, which was assessed by visually controlling the plants.
(§3) Example 1 concerns a herbicide composition comprising a combination of pyridate and mesotrione, which was applied post-emergence on unwanted vegetation on a field where maize was cultivated, according to the test conditions mentioned above.

Atriplex patula = test: Field trial post-emergence in maize: ATXPA
Procedure: as §1, §2, §3

Convolvulus arvensis = test: Field trial post-emergence in maize: CONAR
Procedure: as §1, §2, §3

Anagallis arvensis = test: Field trial post-emergence in maize: ANGAR; conditions: 7-14 DAA; # = 2; g a.c./ha: PYR 300, MES 100, PYR + MES 300 + 90
Procedure: as §1
(§4) Herbicidal activity was determined by applying herbicide compositions on emerged unwanted vegetation on fields where maize was cultivated. Pyridate and a defined 4-HPPD inhibitor were applied as a tank mixture by mixing these active compounds prior to use in a spray tank. The corresponding mixture was in the form of a spray liquor. […] At a specified number of days after application (DAA), the degree of damage to the unwanted vegetation is rated in % of plants of unwanted vegetation that were killed, which was assessed by visually controlling the plants.

Poa annua [1] = test: Field trial post-emergence in maize: POAAN; conditions: for herbicidal effect (h.e.): g a.c./ha: PYR 300, MES 100, PYR + MES 300 + 90
Procedure: as §1, §2

Sorghum halepense = test: Field trial post-emergence in maize: SORHA; conditions: 7-14 DAA; # = 1; g a.c./ha: PYR 300, MES 100, PYR + MES 300 + 90
Procedure: as §1, §4

Digitaria sanguinalis = test: Field trial post-emergence in maize: DIGSA; conditions: g a.c./ha: PYR 300, MES 100, PYR + MES 300 + 90
Procedure: as §1, §2

Matricaria chamomilla = test: Examples 6-8 herbicidal effect: MATCH; conditions: 7 DAA
Erodium ciconium = test: Field trial post-emergence in maize: EROCC
Procedure: as §1, §2, §3

[2] = system: unwanted vegetation (UVEG); test: Field trials Examples 1-5 (incl. Table 1), post-emergence on unwanted vegetation in maize; conditions: 14-20 DAA
Procedure: as §1, §2

Thlaspi arvense = test: Field trial post-emergence in maize: THLAR; conditions: # = 1, g a.c./ha: PYR 300, MES 100, PYR + MES 300 + 90
Procedure: as §1, §2

Stellaria media = test: Field trial post-emergence in maize: STEME
Procedure: as §1, §2

Geranium sp. = test: Field trial post-emergence in maize: GERSS; conditions: # = 1, g a.c./ha: PYR 300, MES 100, PYR + MES 300 + 90
Procedure: as §1, §2

Poa annua [3] = test: Examples 6-8 herbicidal effect: POAAN; conditions: 7 DAA
Kickxia elatine = test: Field trial post-emergence in maize: KICEL
Procedure: as §1, §2, §3

Viola arvensis = test: Field trial post-emergence in maize: VIOAR
Procedure: as §1, §2, §3

Chenopodium album = test: Examples 6-8 herbicidal effect: CHEAL; conditions: 7 DAA
Solanum nigrum = test: Examples 6-8 herbicidal effect: SOLNI; conditions: 7 DAA
Brassica napus (winter) = test: Field trial post-emergence in maize: BRSNW; conditions: # = 1, g a.c./ha: PYR 300, MES 100, PYR + MES 300 + 90
Procedure: as §1, §2

[4] = g a.c./ha: PYR 10, TEM 22, PYR + TEM 10 + 100
[5] = g a.c./ha: PYR 300, PYR + MES 300 + 80
[6] = g a.c./ha: PYR 300, SCT 300, PYR + SCT 300 + 300
[7] = g a.c./ha: PYR 300, TEM 100, PYR + TEM 300 + 100
[8] = g a.c./ha: PYR 450, SCT 450, PYR + SCT 300 + 450
[9] = g a.c./ha: PYR 600, PYR + SCT 600 + 300
[10] = g a.c./ha: PYR 900, TEM 44, PYR + TEM 900 + 44

CCCCCCCCSC(=O)Oc1cc(Cl)nnc1-c1ccccc1 [PYR, (6-chloro-3-phenylpyridazin-4-yl) octylsulfanylformate]
PYR h.e. (Setaria verticillata; SETVE 14-20 DAA 300 g a.c./ha): 29% | PYR h.e. (Setaria verticillata; SETVE 14-20 DAA 600 g a.c./ha): 47% | PYR h.e. (Setaria verticillata; SETVE 14-20 DAA 900 g a.c./ha): 75% | PYR h.e. (Setaria verticillata; SETVE 24-31 DAA 300 g a.c./ha): 29% | PYR h.e. (Setaria verticillata; SETVE 24-31 DAA 600 g a.c./ha): 33% | PYR h.e. (Setaria verticillata; SETVE 24-31 DAA 900 g a.c./ha): 60% | PYR h.e. (Atriplex patula; ATXPA 24-31 DAA 300 g a.c./ha): 43% | PYR h.e. (Atriplex patula; ATXPA 24-31 DAA 600 g a.c./ha): 49% | PYR h.e. (Convolvulus arvensis; CONAR 14-20 DAA 300 g a.c./ha): 35% | PYR h.e. (Convolvulus arvensis; CONAR 14-20 DAA 600 g a.c./ha): 40% | PYR h.e. (Convolvulus arvensis; CONAR 14-20 DAA 900 g a.c./ha): 45% | PYR h.e. (Convolvulus arvensis; CONAR 24-31 DAA 600 g a.c./ha): 48% | PYR h.e. (Convolvulus arvensis; CONAR 24-31 DAA 900 g a.c./ha): 45% | herbicidal effect (h.e.) (Anagallis arvensis): 6% | herbicidal effect (h.e.) (Poa annua [1]; 7-14 DAA, # = 2): 25% | herbicidal effect (h.e.) (Poa annua [1]; 18-28 DAA, # = 3): 17% | herbicidal effect (h.e.) (Poa annua [1]; 31-48 DAA, # = 2): 17% | PYR h.e. (Poa annua [1]; POAAN 14-20 DAA 300 g a.c./ha): 7% | PYR h.e. (Poa annua [1]; POAAN 14-20 DAA 600 g a.c./ha): 17% | PYR h.e. (Poa annua [1]; POAAN 14-20 DAA 900 g a.c./ha): 36% | PYR h.e. (Poa annua [1]; POAAN 24-31 DAA 300 g a.c./ha): 5% | PYR h.e. (Poa annua [1]; POAAN 24-31 DAA 600 g a.c./ha): 13% | PYR h.e. (Poa annua [1]; POAAN 24-31 DAA 900 g a.c./ha): 28% | herbicidal effect (h.e.) (Sorghum halepense): 58% | herbicidal effect (h.e.) (Digitaria sanguinalis; 7-14 DAA, # = 2): 30% | herbicidal effect (h.e.) (Digitaria sanguinalis; 18-28 DAA, # = 2): 24% | herbicidal effect (h.e.) (Digitaria sanguinalis; 31-48 DAA, # = 1): 48% | herbicidal effect (h.e.) (Matricaria chamomilla; [4]): 0% | herbicidal effect (h.e.) (Matricaria chamomilla; [5]): 0% | herbicidal effect (h.e.) (Matricaria chamomilla; [6]): 0% | herbicidal effect (h.e.) (Matricaria chamomilla; [7]): 0% | herbicidal effect (h.e.) (Matricaria chamomilla; [8]): 0% | herbicidal effect (h.e.) (Matricaria chamomilla; [9]): 0% | herbicidal effect (h.e.) (Matricaria chamomilla; [10]): 0% | PYR h.e. (Erodium ciconium; EROCC 14-20 DAA 300 g a.c./ha): 89% | PYR h.e. (Erodium ciconium; EROCC 14-20 DAA 600 g a.c./ha): 96% | PYR h.e. (%) ([2]; VIOAR (Viola arvensis), # = 3, first VIOAR block (r259-264), PYR 900 g a.c./ha): 50% | PYR h.e. (%) ([2]; VIOAR (Viola arvensis), # = 3, second VIOAR block (r265-272), PYR 300 g a.c./ha): 27% | PYR h.e. (%) ([2]; VIOAR, # = 3, second VIOAR block (r265-272), PYR 600 g a.c./ha): 34% | PYR h.e. (%) ([2]; VIOAR, # = 3, second VIOAR block (r265-272), PYR 900 g a.c./ha): 47% | herbicidal effect (h.e.) (Thlaspi arvense; 7-14 DAA): 28% | herbicidal effect (h.e.) (Thlaspi arvense; 18-28 DAA): 19% | herbicidal effect (h.e.) (Stellaria media; 18-28 DAA, # = 4, g a.c./ha: PYR 300, MES 100, PYR + MES 300 + 90): 35% | PYR h.e. (Stellaria media; STEME 14-20 DAA 300 g a.c./ha): 18% | PYR h.e. (Stellaria media; STEME 14-20 DAA 600 g a.c./ha): 42% | PYR h.e. (Stellaria media; STEME 14-20 DAA 900 g a.c./ha): 55% | PYR h.e. (Stellaria media; STEME 24-31 DAA 300 g a.c./ha): 16% | PYR h.e. (Stellaria media; STEME 24-31 DAA 600 g a.c./ha): 30% | PYR h.e. (Stellaria media; STEME 24-31 DAA 900 g a.c./ha): 50% | herbicidal effect (h.e.) (Geranium sp.; 7-14 DAA): 13% | herbicidal effect (h.e.) (Geranium sp.; 18-28 DAA): 0% | herbicidal effect (h.e.) (Geranium sp.; 31-48 DAA): 0% | herbicidal effect (h.e.) (Poa annua [3]; [4]): 0% | herbicidal effect (h.e.) (Poa annua [3]; [5]): 3% | herbicidal effect (h.e.) (Poa annua [3]; [6]): 2% | herbicidal effect (h.e.) (Poa annua [3]; [7]): 10% | herbicidal effect (h.e.) (Poa annua [3]; [8]): 2% | herbicidal effect (h.e.) (Poa annua [3]; [9]): 0% | herbicidal effect (h.e.) (Poa annua [3]; [10]): 0% | PYR h.e. (Kickxia elatine; KICEL 14-20 DAA 300 g a.c./ha): 0% | PYR h.e. (Kickxia elatine; KICEL 14-20 DAA 600 g a.c./ha): 0% | PYR h.e. (Kickxia elatine; KICEL 14-20 DAA 900 g a.c./ha): 0% | PYR h.e. (Kickxia elatine; KICEL 24-31 DAA 300 g a.c./ha): 0% | PYR h.e. (Kickxia elatine; KICEL 24-31 DAA 600 g a.c./ha): 0% | PYR h.e. (Kickxia elatine; KICEL 24-31 DAA 900 g a.c./ha): 0% | PYR h.e. (Viola arvensis; VIOAR 14-20 DAA 300 g a.c./ha): 31% | PYR h.e. (Viola arvensis; VIOAR 14-20 DAA 600 g a.c./ha): 34% | PYR h.e. (Viola arvensis; VIOAR 14-20 DAA 900 g a.c./ha): 50% | herbicidal effect (h.e.) (Chenopodium album; [4]): 0% | herbicidal effect (h.e.) (Chenopodium album; [5]): 6% | herbicidal effect (h.e.) (Chenopodium album; [6]): 3% | herbicidal effect (h.e.) (Chenopodium album; [7]): 5% | herbicidal effect (h.e.) (Chenopodium album; [8]): 10% | herbicidal effect (h.e.) (Chenopodium album; [9]): 22% | herbicidal effect (h.e.) (Chenopodium album; [10]): 90% | herbicidal effect (h.e.) (Solanum nigrum; [4]): 0% | herbicidal effect (h.e.) (Solanum nigrum; [5]): 11% | herbicidal effect (h.e.) (Solanum nigrum; [6]): 10% | herbicidal effect (h.e.) (Solanum nigrum; [7]): 10% | herbicidal effect (h.e.) (Solanum nigrum; [8]): 10% | herbicidal effect (h.e.) (Solanum nigrum; [9]): 28% | herbicidal effect (h.e.) (Solanum nigrum; [10]): 100% | herbicidal effect (h.e.) (Brassica napus (winter); 7-14 DAA): 5% | herbicidal effect (h.e.) (Brassica napus (winter); 18-28 DAA): 5%
